Consider four compounds from publication PMC3488456 (Bioorganic & medicinal chemistry letters, 2012).

One data set relates to LRH1. To be noted: same FRET assay; cited from earlier work.
Another data set has as its system SF1. Particulars: same FRET assay; cited from earlier work.
In the next data set the test system is LXRβ. Particulars: reporter-gene assay; cited from earlier work.
The next data set has as its system RORα. To be noted: same FRET assay; cited from earlier work.
A further data set can be described thus: Mouse brain penetration. Type of data set: in vivo, C57Bl6 mice. To be noted: mice.
The nature of another data set: Rat pharmacokinetics. To be noted: for clearance: Sprague-Dawley, rat, in vivo, iv, 1 mg/kg. The data set is classed as in vivo, Sprague-Dawley rats.
Another data set concerns FXR. To be noted: same FRET assay; cited from earlier work.
The next data set concerns LXRα. To be noted: reporter-gene assay; cited from earlier work.
A further data set addresses T1, Rev-erbα (Homo sapiens, UniProt P20393).
T1 sequence (P20393 1-614): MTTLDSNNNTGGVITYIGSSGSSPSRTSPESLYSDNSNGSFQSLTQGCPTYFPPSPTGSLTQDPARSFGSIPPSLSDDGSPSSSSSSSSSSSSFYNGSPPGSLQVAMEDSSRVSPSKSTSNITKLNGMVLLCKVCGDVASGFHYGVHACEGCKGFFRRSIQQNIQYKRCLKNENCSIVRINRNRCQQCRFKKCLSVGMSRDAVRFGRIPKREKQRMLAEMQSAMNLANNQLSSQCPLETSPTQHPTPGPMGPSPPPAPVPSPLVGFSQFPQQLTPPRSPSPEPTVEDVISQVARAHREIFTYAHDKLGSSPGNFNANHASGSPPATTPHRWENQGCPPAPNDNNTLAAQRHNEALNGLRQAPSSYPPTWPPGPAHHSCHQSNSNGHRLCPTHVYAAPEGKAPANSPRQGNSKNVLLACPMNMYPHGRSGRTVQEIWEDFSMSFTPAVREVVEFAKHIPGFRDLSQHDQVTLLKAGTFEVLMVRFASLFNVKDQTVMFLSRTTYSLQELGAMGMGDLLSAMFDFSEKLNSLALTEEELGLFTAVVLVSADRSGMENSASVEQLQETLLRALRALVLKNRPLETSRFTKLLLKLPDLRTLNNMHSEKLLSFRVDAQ
Type of data set: cell-based.

On to `CC(C)(C)OC(=O)CN(Cc1ccc(Cl)cc1)Cc1ccc([N+](=O)[O-])s1` [Compound 1], for which the “activity on LRH1” value in the data set on LRH1 is “no activity”. In addition, the “activity on SF1” value in the data set with SF1 is “no activity”. Further, the “activity on LXRβ” value with LXRβ is recorded as “no activity”. Also, in the data set with RORα, the “activity on RORα” value was “no activity”. Also, in the data set “Mouse brain penetration”, the “brain penetration (in words)” value is on record as “good brain penetration”. In addition, the clearance (commonly a measure of how efficiently the substance is removed, as volume per time) in “Rat pharmacokinetics” came to 353 mL/min/kg. In “Rat pharmacokinetics” (rats), the “oral bioavailability / oral absorption (in words)” value is “poor oral bioavailability”, the “plasma clearance (in words)” value is recorded as “very high plasma clearance” and the “volume of distribution (in words)” value is “high volume of distribution”. In “Rat pharmacokinetics” (rodent), the “rodent pharmacokinetics (in words)” value was “poor”. Further, the “activity on FXR” value in the data set on FXR is reported as “no activity”. In addition, the “activity on LXRα” value in the data set with LXRα is “no activity”.

Regarding `CCOC(=O)C1Cc2ccccc2CN1C(=O)c1ccno1` (centres unmarked) [Compound 3n], the response at Rev-erbα was half-maximal at 2.5 µM (EC50).

For the compound `O=C(c1cccc2ccccc12)N1Cc2ccccc2CC1COCc1ccccc1` (centres unmarked) [Compound 6d], in the data set “Rat pharmacokinetics”, the clearance was 39 mL/min/kg. In addition, in “Rat pharmacokinetics” (rats), the “oral bioavailability / oral absorption (in words)” value is listed as “poor oral absorption”.

The compound `O=C(c1cccc2ccccc12)N1Cc2ccccc2CC1CNCc1ccccc1` (centres unmarked) [Compound 7d] yielded a clearance in “Rat pharmacokinetics” of 43 mL/min/kg. Also, in “Rat pharmacokinetics” (rats), the “oral bioavailability / oral absorption (in words)” value is reported as “poor oral absorption”.
